Where two headings read alike, the source gives them in different places.

For test [1], the target named is CB1 (Rattus norvegicus, UniProt P20272). In words: CB1 receptor binding affinity (Ki). How it is done: Some disclosed compounds were tested for CB1 and CB2 receptor binding affinity (Tables 1, 2, 3, 4, 5, 6). As used herein “binding affinity” is represented by the Ki value. The Ki value is the affinity constant and describes the affinity of the compound for the receptor. […] A detailed description of the methods used to test “binding affinity” of compounds is given in Makriyannis, et al., US 2007, 0135388 and in Papahatjis, et al. J. Med. Chem. (2007) 4048, the content of each of which is hereby incorporated by reference.
CB1, sequence (P20272 whole entry): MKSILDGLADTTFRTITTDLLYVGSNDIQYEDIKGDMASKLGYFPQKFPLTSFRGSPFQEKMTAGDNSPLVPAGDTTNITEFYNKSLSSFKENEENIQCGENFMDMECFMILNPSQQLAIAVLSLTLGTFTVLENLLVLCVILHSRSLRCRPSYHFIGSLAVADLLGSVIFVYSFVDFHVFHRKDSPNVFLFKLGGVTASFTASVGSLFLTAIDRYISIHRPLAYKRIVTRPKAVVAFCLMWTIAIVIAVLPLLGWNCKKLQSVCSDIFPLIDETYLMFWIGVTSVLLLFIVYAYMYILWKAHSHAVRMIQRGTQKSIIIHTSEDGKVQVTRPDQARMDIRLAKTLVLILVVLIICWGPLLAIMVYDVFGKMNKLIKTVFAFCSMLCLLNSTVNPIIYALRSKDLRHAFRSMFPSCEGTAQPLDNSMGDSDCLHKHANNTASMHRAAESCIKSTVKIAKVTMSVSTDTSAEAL

Test [2] concerns the target CB2 receptor (UniProt P47936). As to the kind of experiment: CB2 receptor binding affinity (Ki). Conditions: read-out: CB2 receptor Ki. How it is done:
Some disclosed compounds were tested for CB1 and CB2 receptor binding affinity (Tables 1, 2, 3, 4, 5, 6). As used herein “binding affinity” is represented by the Ki value. The Ki value is the affinity constant and describes the affinity of the compound for the receptor. The lower the Ki value, the higher the affinity of the compound for the receptor. A detailed description of the methods used to test “binding affinity” of compounds is given in Makriyannis, et al., US 2007, 0135388 and in Papahatjis, et al. J. Med. Chem. (2007) 4048, the content of each of which is hereby incorporated by reference.

`CCCCCCC1(c2cc(O)c([C@H]3C=C(C)[C@H]4C[C@@H]3C4(C)C)c(O)c2)CCCC1` [Compound 40.4, (+)-2-[(1R,4S,5S)-2,6,6-trimethylbicylco[3.1.1]hept-2-en-4-yl]-5-(1-hexyl-1-cyclopentyl)resorcinol]: the results for the Ki in test [1] and in test [2] were 23 nM and 17 nM, respectively.

Turning to `C=C(C)[C@H]1CCC(COC(C)=O)=C[C@@H]1c1c(O)cc(C2(CCCCCBr)CCCC2)cc1O` [Compound 3.7, 2-[(1S,6S)-3-(Acetoxymethyl)-6-(1-methylethenyl)-2-cyclohexen-1-yl]-5-[(5-bromopentyl)cyclopentyl)resorcinol], the Ki (as a rule, a dissociation constant, usually derived from enzyme kinetics or from competition with a known ligand) was found to be 51 nM in test [1] and 25 nM in test [2]. In the same order, the values of `C=C(C)[C@H]1CCC(CO)=C[C@@H]1c1c(O)cc(C2(CCCCCN=[N+]=[N-])CCC2)cc1O` [Compound 37, 2-[(1S,6S)-3-(Hydroxymethyl)-6-(1-methylethenyl)-2-cyclohexen-1-yl]-5-[(5-azidopentyl)cyclobutyl)resorcinol] are 22 nM and 7.2 nM. For “2-[(1S,6S)-3-(Hydroxymethyl)-6-(1-methylethenyl)-2-cyclohexen-1-yl]-5-[1-(1,2-cis-hexen-1-yl)-cyclopent-1-yl]resorcinol [Compound 4.5]”, the figures for the Ki in test [1] (read-out: CB1 receptor Ki) and in test [2] were 29 nM and 2.7 nM, respectively. Regarding `C=C(C)[C@H]1CCC(CO)=C[C@@H]1c1c(O)cc(C2(CCCCCBr)CCC2)cc1O` [Compound 4.8, 2-[(1S,6S)-3-(Hydroxymethyl)-6-(1-methylethenyl)-2-cyclohexen-1-yl]-5-[(5-bromopentyl)cyclobutyl)resorcinol], the figures for the inhibitory constant (Ki) in test [1] and in test [2] were 14 nM and 11 nM, respectively. The matching figures for `C=C(C)[C@H]1CCC(COC(C)=O)=C[C@@H]1c1c(O)cc(C2(CCCCCC)CC2)cc1O` [Compound 3.3, 2-[(1S,6S)-3-(Acetoxymethyl)-6-(1-methylethenyl)-2-cyclohexen-1-yl]-5-(1-hexyl-cyclopropyl)resorcinol]: 88 nM and 105 nM.

Regarding `C=C(C)[C@H]1CCC(COC(C)=O)=C[C@@H]1c1c(O)cc(C(C)(C)CCCCBr)cc1O` [Compound 3.11, 2-[(1S,6S)-3-(Acetoxymethyl)-6-(1-methylethenyl)-2-cyclohexen-1-yl]-5-(6-bromo-2-methylhexan-2-yl)resorcinol], the Ki in test [1] amounted to 191 nM; in test [2], 37 nM.

Take `C=C(C)[C@@H]1CCC(=O)C[C@H]1c1c(O)cc(C23CC4CC(CC(C4)C2)C3)cc1O` [Compound 48.2, (3R,4R)-3-[4-(1-Adamantyl)-2,6-dihydroxyphenyl]-4-isopropenylcyclohexan-1-one]: the inhibition constant (Ki) in test [1] was 694 nM; in test [2], > 1000 nM.

As to `C=C(C)[C@H]1CCC(C)=C[C@@H]1c1c(O)cc(CCCCC)cc1O` [(+)-CBD, Cannabidiol, reference compound], in test [2], the Ki was > 200 nM. For the compound `C=C(C)[C@@H]1CC[C@@H](N2CCOCC2)C[C@H]1c1c(O)cc(C(C)(C)CCCCCC)cc1O` [Compound 62, (1R,3R,4R)-3-[4-(1′,1′-Dimethylheptyl)-2,6-dihydroxyphenyl]-4-isopropenyl-1-morpholinylcyclohexane], the inhibitory constant (Ki) in test [1] is 69 nM; in test [2] it was 14 nM. Turning to `C=C(C)[C@H]1CCC(COC(C)=O)=C[C@@H]1c1c(O)cc(C(C)(C)CCCBr)cc1O` [Compound 3.10, 2-[(1S,6S)-3-(Acetoxymethyl)-6-(1-methylethenyl)-2-cyclohexen-1-yl]-5-(5-bromo-2-methypentan-2-yl)resorcinol], the results for the inhibition constant Ki in test [1] and in test [2] were 620 nM and 14 nM, respectively. Consider `C=C(C)[C@H]1CCC(COC(C)=O)=C[C@@H]1c1c(O)cc(C(C)(C)CCCCCBr)cc1O` [Compound 3.12, 2-[(1S,6S)-3-(Acetoxymethyl)-6-(1-methylethenyl)-2-cyclohexen-1-yl]-5-(7-bromo-2-methylheptan-2-yl)resorcinol], for which the Ki in test [1] was 29 nM; in test [2] it was 27 nM. With `C=C(C)[C@@H]1CCC(C)=C[C@H]1c1c(O)cc(CCCCC)cc1O` [(−)-CBD, Cannabidiol, reference compound], in test [2], the Ki is > 200 nM. For `CC1=C[C@H](c2c(O)cc(C3(CCCCBr)CCC3)cc2O)[C@@H]2C[C@H]1C2(C)C` [Compound 40.15, (+)-2-[(1R,4S,5S)-2,6,6-trimethylbicylco[3.1.1]hept-2-en-4-yl]-5-[(5-bromobutyl)cyclobutyl]resorcinol], the figures for the Ki in test [1] and in test [2] were 11 nM and 1.9 nM, respectively.

Regarding `CC1=C[C@H](c2c(O)cc(C3(CCCCCBr)CCC3)cc2O)[C@@H]2C[C@H]1C2(C)C` [Compound 40.8, (+)-2-[(1R,4S,5S)-2,6,6-trimethylbicylco[3.1.1]hept-2-en-4-yl]-5-[(5-bromopentyl)cyclobutyl]resorcinol], the inhibition constant (Ki) was 1 nM in test [1] and 2.1 nM in test [2]. Consider `C=C(C)[C@H]1CCC(COC(C)=O)=C[C@@H]1c1c(O)cc(C(C)(C)CCCCCC)cc1O` [Compound 3.2, 2-[(1S,6S)-3-(Acetoxymethyl)-6-(1-methylethenyl)-2-cyclohexen-1-yl]-5-(1,1-dimethylheptyl)resorcinol], for which the Ki amounted to 69 nM in test [1] and 62 nM in test [2]. Consider `C=C(C)[C@@H]1CC[C@@H](O)C[C@H]1c1c(O)cc(C23CC4CC(CC(C4)C2)C3)cc1O` [Compound 55, (1R,3R,4R)-3-[4-(1-Adamantyl)-2,6-dihydroxyphenyl]-4-isopropenyl-1-hydroxycyclohexane], for which the figures for the Ki in test [1] and in test [2] were 2400 nM and 343 nM, respectively. The matching figures for `C=C(C)C1CCC(O)CC1c1c(O)cc(C(C)(C)CCCCCC)cc1O` [Compound 68, (1R,3R,4R)-3-[4-(1′,1′-Dimethylheptyl)-2,6-dihydroxyphenyl]-4-isopropenyl-1-hydroxycyclohexane]: > 1000 nM and 33 nM. The matching figures for `CC(C)[C@H]1CC[C@@H](CO)C[C@H]1c1c(O)cc(C23CC4CC(CC(C4)C2)C3)cc1O` [Compound 56, (1R,3R,4R)-3-[4-(1-Adamantyl)-2,6-dihydroxyphenyl]-4-isopropyl-1-(hydroxymethyl)cyclohexane]: 998 nM and 23 nM.

Regarding `C=C(C=O)[C@@H]1CC[C@@H](CO)C[C@H]1c1c(O)cc(C23CC4CC(CC(C4)C2)C3)cc1O` [Compound 53.2, (1R,3R,4R)-3-[4-(1-Adamantyl)-2,6-dihydroxyphenyl]-4-[2′-(propenalyl)]-1-(hydroxymethyl)cyclohexane], the values for the inhibition constant Ki in test [1] and in test [2] were 1400 nM and 20 nM, respectively. In the same order, the values of `C=C(C)[C@@H]1CCC(COC(C)=O)=C[C@H]1c1c(O)cc(C(C)(C)CCCCCC)cc1O` [Compound 31.2, 2-[(1R,6R)-3-(Acetoxymethyl)-6-(1-methylethenyl)-2-cyclohexen-1-yl]-5-(1,1-dimethylheptyl)resorcinol] are 221 nM and 375 nM. The matching figures for `C=C(C)[C@H]1CCC(COC(C)=O)=C[C@@H]1c1c(O)cc(C2(CCCCCBr)CCC2)cc1O` [Compound 3.8, 2-[(1S,6S)-3-(Acetoxymethyl)-6-(1-methylethenyl)-2-cyclohexen-1-yl]-5-[(5-bromopentyl)cyclobutyl)resorcinol]: 50 nM and 35 nM. In the same order, the values of `C=C(C)[C@@H]1CCC(COC(C)=O)=C[C@H]1c1c(O)cc(C(C)(C)CCCCCCBr)cc1O` [Compound 31.13, 2-[(1R,6R)-3-(Acetoxymethyl)-6-(1-methylethenyl)-2-cyclohexen-1-yl]-5-(8-bromo-2-methyloct-2-yl)resorcinol] are 205 nM and 171 nM. Consider `CCCCCc1cc(O)c([C@@H]2C=C(C)[C@@H]3C[C@H]2C3(C)C)c(O)c1` [Compound 43.1, (−)-2-[(1S,4R,5R)-2,6,6-trimethylbicyclo[3.1.1]hept-2-en-4-yl]-5-pentyl-resorcinol, reference compound], for which the Ki is 837 nM in test [1] and 565 nM in test [2]. The matching figures for `CC1=C[C@H](c2c(O)cc(C3(CCCCCBr)CCCC3)cc2O)[C@@H]2C[C@H]1C2(C)C` [Compound 40.7, (+)-2-[(1R,4S,5S)-2,6,6-trimethylbicylco[3.1.1]hept-2-en-4-yl]-5-[(5-bromopentyl)cyclopentyl]resorcinol]: 6.4 nM and 4.7 nM.

Consider `C=C(CO)[C@@H]1CC[C@@H](CO)C[C@H]1c1c(O)cc(C23CC4CC(CC(C4)C2)C3)cc1O` [Compound 54.2, (1R,3R,4R)-3-[4-(1-Adamantyl)-2,6-dihydroxyphenyl]-4-[2′-(3′-hydroxyprop-1′-enyl)]-1-(hydroxymethyl)cyclohexane], for which the Ki was 4140 nM in test [1] and 185 nM in test [2]. `CCCCCc1cc(O)c([C@H]2C=C(C)[C@H]3C[C@@H]2C3(C)C)c(O)c1` [Compound 40.1, (+)-2-[(1R,4S,5S)-2,6,6-trimethylbicyclo[3.1.1]hept-2-en-4-yl]-5-pentyl-resorcinol, reference compound]: the results for the Ki in test [1] and in test [2] were 671 nM and 47 nM, respectively. The matching figures for `C=C(C)[C@@H]1CCC(=O)C[C@H]1c1c(O)cc(C(C)(C)CCCCCC)cc1O` [Compound 61.2, (3R,4R)-3-[4-(1′,1′-Dimethylheptyl)-2,6-dihydroxyphenyl]-4-isopropenylcyclohexan-1-one]: > 1000 nM and 37 nM.

The record behind these values is patent US9517989B2, “2-cycloalkyl resorcinol cannabinergic ligands” (priority 2012, dated 2016).
